ChEMBL document CHEMBL1201862, “PubChem BioAssay data set” (2004)
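Cells were grown in 96-well plates and exposed to each compound for 48 hours at five concentrations; endpoints were interpolated linearly between bracketing concentrations, or set to the highest concentration if not reached. GI50 = concentration required for 50% inhibition of growth.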 Active and inactive are the calls of the source. Rule as the data show it: active = GI50 up to about 1.1 µM and inactive = higher.

Columns and labels:
Test in all cases: growth of human tumour cells (NCI), 48 h
SW-620 = tested on: SW-620
DMS-114 = tested on: DMS-114
SN12C = tested on: SN12C
K562 = tested on: K562
OVCAR-8 = tested on: OVCAR-8
ACHN = tested on: ACHN
SF-295 = tested on: SF-295
SK-OV-3 = tested on: SK-OV-3
XF498 = tested on: XF498
PC-3 = tested on: PC-3
DU-145 = tested on: DU-145
EKVX = tested on: EKVX
SK-MEL-2 = tested on: SK-MEL-2
DLD-1 = tested on: DLD-1
NCI-H460 = tested on: NCI-H460
KM-20L2 = tested on: KM-20L2
A498 = tested on: A498
OVCAR-3 = tested on: OVCAR-3
SNB-78 = tested on: SNB-78
COLO 205 = tested on: COLO 205
NCI-H522 = tested on: NCI-H522
MDA-MB-435 = tested on: MDA-MB-435
M14 = tested on: M14
CCRF-CEM = tested on: CCRF-CEM
OVCAR-5 = tested on: OVCAR-5
TK-10 = tested on: TK-10
DMS-273 = tested on: DMS-273
HL-60 = tested on: HL-60
CAKI-1 = tested on: CAKI-1
HCT-15 = tested on: HCT-15
UO-31 = tested on: UO-31
LOX IMVI = tested on: LOX IMVI
A549 = tested on: A549
UACC-257 = tested on: UACC-257
MDA-MB-231 = tested on: MDA-MB-231
RPMI-8226 = tested on: RPMI-8226
Malme-3M = tested on: Malme-3M
HOP-92 = tested on: HOP-92
MCF7 = tested on: MCF7
SR = tested on: SR
HCT-116 = tested on: HCT-116
M19-MEL = tested on: M19-MEL
BT-549 = tested on: BT-549
MDA-N = tested on: MDA-N
U-251 = tested on: U-251
KM12 = tested on: KM12
OVCAR-4 = tested on: OVCAR-4
SNB-19 = tested on: SNB-19
RXF 393 = tested on: RXF 393
SK-MEL-28 = tested on: SK-MEL-28
SK-MEL-5 = tested on: SK-MEL-5
Hs-578T = tested on: Hs-578T
HCC 2998 = tested on: HCC 2998
NCI/ADR-RES = tested on: NCI/ADR-RES
HOP-18 = tested on: HOP-18
HT-29 = tested on: HT-29
NCI-H23 = tested on: NCI-H23
MOLT-4 = tested on: MOLT-4
786-0 = tested on: 786-0
SNB-75 = tested on: SNB-75
SF-539 = tested on: SF-539
UACC-62 = tested on: UACC-62
SF-268 = tested on: SF-268
NCI-H226 = tested on: NCI-H226
HOP-62 = tested on: HOP-62
T47D = tested on: T47D
IGROV-1 = tested on: IGROV-1
LXFL 529 = tested on: LXFL 529

SMILES: S=c1c2nc[nH]c2ncn1CCSC1=NC=NC2=NC=NC21 (stereo not given)
- GI50 (SW-620): > 100 µM (inactive)
- GI50 (DMS-114): > 100 µM (inactive)
- GI50 (SN12C): > 100 µM (inactive)
- GI50 (K562): 30.6 µM (inactive)
- GI50 (OVCAR-8): > 100 µM (inactive)
- GI50 (ACHN): > 100 µM (inactive)
- GI50 (SF-295): > 100 µM (inactive)
- GI50 (SK-OV-3): 52.2 µM (inactive)
- GI50 (XF498): > 100 µM (inactive)
- GI50 (PC-3): > 100 µM (inactive)
- GI50 (DU-145): 78.3 µM (inactive)
- GI50 (EKVX): > 100 µM (inactive)
- GI50 (SK-MEL-2): > 100 µM (inactive)
- GI50 (DLD-1): > 100 µM (inactive)
- GI50 (NCI-H460): > 100 µM (inactive)
- GI50 (KM-20L2): > 100 µM (inactive)
- GI50 (A498): > 100 µM (inactive)
- GI50 (OVCAR-3): 57.1 µM (inactive)
- GI50 (SNB-78): 73.6 µM (inactive)
- GI50 (COLO 205): > 100 µM (inactive)
- GI50 (NCI-H522): > 73.6 µM (inactive)
- GI50 (MDA-MB-435): 53.5 µM (inactive)
- GI50 (M14): 43.8 µM (inactive)
- GI50 (CCRF-CEM): > 82.2 µM (inactive)
- GI50 (OVCAR-5): > 100 µM (inactive)
- GI50 (TK-10): > 76.2 µM (inactive)
- GI50 (DMS-273): 64.4 µM (inactive)
- GI50 (HL-60): > 92 µM (inactive)
- GI50 (CAKI-1): > 100 µM (inactive)
- GI50 (HCT-15): > 100 µM
- GI50 (UO-31): > 100 µM (inactive)
- GI50 (LOX IMVI): 44.7 µM (inactive)
- GI50 (A549): > 100 µM (inactive)
- GI50 (UACC-257): > 81.3 µM (inactive)
- GI50 (MDA-MB-231): > 100 µM (inactive)
- GI50 (RPMI-8226): > 85.5 µM (inactive)
- GI50 (Malme-3M): > 100 µM (inactive)
- GI50 (HOP-92): > 80 µM (inactive)
- GI50 (MCF7): > 100 µM (inactive)
- GI50 (SR): 50.1 µM (inactive)
- GI50 (HCT-116): > 100 µM (inactive)
- GI50 (M19-MEL): > 100 µM (inactive)
- GI50 (BT-549): > 100 µM (inactive)
- GI50 (MDA-N): 61.7 µM (inactive)
- GI50 (U-251): > 100 µM (inactive)
- GI50 (KM12): 76.2 µM (inactive)
- GI50 (OVCAR-4): > 87.3 µM (inactive)
- GI50 (SNB-19): > 100 µM (inactive)
- GI50 (RXF 393): > 100 µM (inactive)
- GI50 (SK-MEL-28): > 100 µM (inactive)
- GI50 (SK-MEL-5): > 100 µM (inactive)
- GI50 (Hs-578T): > 100 µM (inactive)
- GI50 (HCC 2998): > 100 µM (inactive)
- GI50 (NCI/ADR-RES): > 100 µM (inactive)
- GI50 (HOP-18): > 100 µM (inactive)
- GI50 (HT-29): > 100 µM (inactive)
- GI50 (NCI-H23): > 100 µM (inactive)
- GI50 (MOLT-4): 70.5 µM (inactive)
- GI50 (786-0): 71 µM (inactive)
- GI50 (SNB-75): > 66.1 µM (inactive)
- GI50 (SF-539): > 84.1 µM (inactive)
- GI50 (UACC-62): 79.8 µM (inactive)
- GI50 (SF-268): > 100 µM (inactive)
- GI50 (NCI-H226): > 100 µM (inactive)
- GI50 (HOP-62): 66.1 µM (inactive)
- GI50 (T47D): > 94.2 µM (inactive)
- GI50 (IGROV-1): > 100 µM (inactive)

SMILES: C\C=C/C=C/C=C/C(=O)O
- GI50 (SW-620): > 100 µM (inactive)
- GI50 (DMS-114): > 100 µM (inactive)
- GI50 (SN12C): > 100 µM (inactive)
- GI50 (K562): > 100 µM (inactive)
- GI50 (OVCAR-8): > 100 µM (inactive)
- GI50 (ACHN): > 100 µM (inactive)
- GI50 (SF-295): > 100 µM (inactive)
- GI50 (SK-OV-3): > 100 µM (inactive)
- GI50 (EKVX): 67.3 µM (inactive)
- GI50 (SK-MEL-2): > 100 µM (inactive)
- GI50 (DLD-1): > 100 µM (inactive)
- GI50 (NCI-H460): > 100 µM (inactive)
- GI50 (KM-20L2): > 100 µM (inactive)
- GI50 (A498): > 100 µM (inactive)
- GI50 (OVCAR-3): > 100 µM (inactive)
- GI50 (SNB-78): > 100 µM (inactive)
- GI50 (COLO 205): > 100 µM (inactive)
- GI50 (NCI-H522): > 100 µM (inactive)
- GI50 (M14): > 100 µM (inactive)
- GI50 (CCRF-CEM): > 100 µM (inactive)
- GI50 (OVCAR-5): > 100 µM (inactive)
- GI50 (DMS-273): > 100 µM (inactive)
- GI50 (HL-60): > 100 µM (inactive)
- GI50 (CAKI-1): > 100 µM (inactive)
- GI50 (HCT-15): > 100 µM
- GI50 (UO-31): > 100 µM (inactive)
- GI50 (LOX IMVI): > 100 µM (inactive)
- GI50 (A549): > 100 µM (inactive)
- GI50 (UACC-257): > 100 µM (inactive)
- GI50 (RPMI-8226): > 100 µM (inactive)
- GI50 (Malme-3M): > 100 µM (inactive)
- GI50 (LXFL 529): > 100 µM (inactive)
- GI50 (HCT-116): > 100 µM (inactive)
- GI50 (U-251): > 100 µM (inactive)
- GI50 (KM12): > 100 µM (inactive)
- GI50 (OVCAR-4): > 100 µM (inactive)
- GI50 (SNB-19): > 100 µM (inactive)
- GI50 (RXF 393): > 100 µM (inactive)
- GI50 (SK-MEL-28): > 100 µM (inactive)
- GI50 (SK-MEL-5): > 100 µM (inactive)
- GI50 (HCC 2998): > 100 µM (inactive)
- GI50 (HOP-18): > 100 µM (inactive)
- GI50 (HT-29): > 100 µM (inactive)
- GI50 (NCI-H23): > 100 µM (inactive)
- GI50 (MOLT-4): > 100 µM (inactive)
- GI50 (786-0): > 100 µM (inactive)
- GI50 (SNB-75): > 100 µM (inactive)
- GI50 (SF-539): > 100 µM (inactive)
- GI50 (UACC-62): > 100 µM (inactive)
- GI50 (SF-268): > 100 µM (inactive)
- GI50 (NCI-H226): > 100 µM (inactive)
- GI50 (HOP-62): > 100 µM (inactive)
- GI50 (IGROV-1): > 100 µM (inactive)
